Assay results published in PMC5743427, “Inhibition of PIP4Kγ ameliorates the pathological effects of mutant huntingtin protein” (eLife, 2017).

Tests used:
PIP4Kalpha = target: T1, PIP4Kalpha (Homo sapiens, UniProt P48426); test: […] lipid kinase assay (PI5P phosphorylation) with purified recombinant enzyme; weak inhibition; assay type: biochemical
T1 construct: gene PIP4K2A
T1 sequence (P48426 2-406): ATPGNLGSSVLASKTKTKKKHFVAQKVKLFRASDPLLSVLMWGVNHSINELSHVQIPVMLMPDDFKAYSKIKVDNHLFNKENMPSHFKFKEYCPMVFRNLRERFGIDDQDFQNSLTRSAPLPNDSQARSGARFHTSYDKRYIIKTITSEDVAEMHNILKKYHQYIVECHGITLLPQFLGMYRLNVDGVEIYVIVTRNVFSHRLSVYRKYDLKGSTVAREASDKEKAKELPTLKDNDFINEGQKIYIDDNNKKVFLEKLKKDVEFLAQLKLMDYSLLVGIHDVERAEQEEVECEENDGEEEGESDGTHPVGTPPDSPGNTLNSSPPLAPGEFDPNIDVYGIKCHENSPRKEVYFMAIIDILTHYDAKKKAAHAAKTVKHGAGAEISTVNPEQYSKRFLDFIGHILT

PIP4Kγ = target: T2, PIP4Kγ (Homo sapiens, UniProt Q8TBX8); test: DiscoverX KINOMEscan competition binding Kd; also […] lipid kinase assay with purified full-length enzyme (IC50 […])
T2 construct: gene PIP4K2C; KINOMEscan construct for Kd; full length isolated PIP4Kγ for the enzyme assay
T2 sequence (Q8TBX8 2-421): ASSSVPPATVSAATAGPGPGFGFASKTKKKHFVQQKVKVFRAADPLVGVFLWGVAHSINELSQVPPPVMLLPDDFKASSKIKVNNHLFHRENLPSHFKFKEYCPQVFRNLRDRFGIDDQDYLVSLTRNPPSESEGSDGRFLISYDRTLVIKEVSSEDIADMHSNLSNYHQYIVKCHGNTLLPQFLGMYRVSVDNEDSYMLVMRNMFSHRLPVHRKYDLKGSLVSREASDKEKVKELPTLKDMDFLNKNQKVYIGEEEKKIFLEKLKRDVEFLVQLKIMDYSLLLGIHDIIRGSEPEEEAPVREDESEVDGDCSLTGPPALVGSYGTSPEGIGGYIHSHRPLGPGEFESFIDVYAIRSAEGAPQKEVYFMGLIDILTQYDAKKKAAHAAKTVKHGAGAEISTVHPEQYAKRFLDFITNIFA

PIP4K2C = target: T3, PIP4K2C (Homo sapiens, UniProt Q8TBX8); test: KINOMEscan competition binding, single dose […]; conditions: 10 µM
T3 sequence (Q8TBX8 2-421): T2 sequence (Q8TBX8 2-421)

| SMILES | IC50 (PIP4Kalpha) | Kd (PIP4Kγ) | ML168 (PIP4K2C) |
| --- | --- | --- | --- |
| Cn1nnnc1Sc1ncnc2scc(-c3cccc(S(C)(=O)=O)c3)c12 [NCT-504, 4-((1-methyl-1H-tetrazol-5-yl)thio)−5-(3-(methylsulfonyl)phenyl)thieno[2,3-d]pyrimidine] | 50 to 100 µM | 0.354 µM |  |
| Cn1nnnc1Sc1ncnc2scc(-c3ccccc3)c12 [ML168] |  |  | 23 |
